# Source: patent publication US20110130432A1, “Heterocyclic Carboxamides For Use As Thrombin Inhibitors” (ASTRAZENECA AB, priority 2008, published 2011)
# Target: T1, Human α-thrombin (Homo sapiens, UniProt P00734)
# T1 construct: Human α-thrombin; purchased Sigma Chemical Co. or Hematologic Technologies
# Assay: Test A: Determination of Thrombin Inhibition with a Chromogenic, Robotic Assay
# Assay type: biochemical
# Conditions: chromogenic substrate S-2366 0.30 mmol/L, α-thrombin 0.020 NIHU/mL, 40 minutes incubation at 37° C.
# Description: Determination of Thrombin Inhibition with a Chromogenic, Robotic Assay
# The thrombin inhibitor potency is measured with a chromogenic substrate method, in a Plato 3300 robotic microplate processor (Rosys AG, CH-8634 Hombrechtikon, Switzerland), using 96-well, half volume microtitre plates (Costar, Cambridge, Mass., USA; Cat No 3690). Stock solutions of test substance in DMSO (72 μL), 0.1-1 mmol/L, are diluted serially 1:3 (24+48 μL) with DMSO to obtain ten different concentrations, which are analyzed as samples in the assay. 2 μL of test sample is diluted with 124 μL assay buffer, 12 μL of chromogenic substrate solution (S-2366, Chromogenix, Mölndal, Sweden) in assay buffer and finally 12 μL of α-thrombin solution (Human α-thrombin, Sigma Chemical Co. or Hematologic Technologies) in assay buffer, are added, and the samples mixed. The final assay concentrations are: test substance […], S-2366 0.30 mmol/L, α-thrombin 0.020 NIHU/mL The linear absorbance increment during 40 minutes incubation at 37° C. is used for calculation of percentage inhibition for the test samples, as compared to blanks without inhibitor. The IC50 value, corresponding to the inhibitor concentration which causes 50% inhibition of the thrombin activity, is calculated from a log concentration vs. % inhibition curve.
structure (smiles),measurement,value
"CCCC(=O)O[C@@H](C(=O)N1N=CC[C@H]1C(=O)NCc1cc(Cl)ccc1-n1cnnn1)c1ccc(F)cc1 [Example 25, (1R)-2-[(5S)-5-{[5-Chloro-2-(1H-tetrazol-1-yl)benzyl]carbamoyl}-4,5-dihydro-1H-pyrazol-1-yl]-1-(4-fluorophenyl)-2-oxoethyl butanoate]",IC50,160 nM
"CCCC[C@@H](O)C(=O)N1OCC[C@H]1C(=O)NCc1cc(Cl)ccc1-n1cnnn1 [Example 38, (3S)—N-[5-Chloro-2-(1H-tetrazol-1-yl)benzyl]-2-[(2R)-2-hydroxyhexanoyl]isoxazolidine-3-carboxamide]",IC50,43 nM
"O=C(O[C@@H](C(=O)N1N=CC[C@H]1C(=O)NCc1cc(Cl)ccc1-n1cnnn1)c1ccc(F)cc1)c1ccccc1 [Example 29, (1R)-2-[(5S)-5-{[5-Chloro-2-(1H-tetrazol-1-yl)benzyl]carbamoyl}-4,5-dihydro-1H-pyrazol-1-yl]-1-(4-fluorophenyl)-2-oxoethyl benzoate]",IC50,13 nM
"O=C(NCc1cc(Cl)ccc1-n1cnnn1)[C@@H]1CC=NN1C(=O)C(O)c1cccc(F)c1F (stereo partly drawn) [Example 2, (5S)—N-[5-Chloro-2-(1H-tetrazol-1-yl)benzyl]-1-[(2,3-difluorophenyl)(hydroxy)acetyl]-4,5-dihydro-1H-pyrazole-5-carboxamide]",IC50,34 nM
"CCCCC(=O)O[C@@H](C(=O)N1N=CC[C@H]1C(=O)NCc1cc(Cl)ccc1-n1cnnn1)c1ccc(F)cc1 [Example 27, (1R)-2-[(5S)-5-{[5-Chloro-2-(1H-tetrazol-1-yl)benzyl]carbamoyl}-4,5-dihydro-1H-pyrazol-1-yl]-1-(4-fluorophenyl)-2-oxoethyl pentanoate]",IC50,140 nM
"CC1(C[C@@H](O)C(=O)N2OCC[C@H]2C(=O)NCc2cc(Cl)ccc2-n2cnnn2)CC1 [Example 43, (3S)—N-[5-Chloro-2-(1H-tetrazol-1-yl)benzyl]-2-[(2R)-2-hydroxy-3-(1-methylcyclopropyl)propanoyl]isoxazolidine-3-carboxamide]",IC50,68 nM
"O=C(NCc1cc(Cl)ccc1-n1cnnn1)[C@@H]1CCON1C(=O)[C@H](O)C1CCCC1 [Example 41, (3S)—N-[5-Chloro-2-(1H-tetrazol-1-yl)benzyl]-2-[(2R)-2-cyclopentyl-2-hydroxyacetyl]isoxazolidine-3-carboxamide]",IC50,41 nM
"O=C(NCc1cc(Cl)ccc1-n1cnnn1)[C@@H]1CC=NN1C(=O)C(O)c1cc(F)cc(F)c1 (stereo partly drawn) [Example 4, (5S)—N-[5-Chloro-2-(1H-tetrazol-1-yl)benzyl]-1-[(3,5-difluorophenyl)(hydroxy)acetyl]-4,5-dihydro-1H-pyrazole-5-carboxamide]",IC50,18 nM
"CCC(=O)Oc1cc(C)cc(C)c1C(C)(C)CC(=O)O[C@@H](C(=O)N1N=CC[C@H]1C(=O)NCc1cc(Cl)ccc1-n1cnnn1)c1ccc(F)cc1 [Example 30, (R)-2-((S)-5-(5-Chloro-2-(1H-tetrazol-1-yl)benzylcarbamoyl)-4,5-dihydro-1H-pyrazol-1-yl)-1-(4-fluorophenyl)-2-oxoethyl 3-(2,4-dimethyl-6-(propionyloxy)phenyl)-3-methylbutanoate]",IC50,660 nM
"CC(C)C(=O)O[C@@H](C(=O)N1N=CC[C@H]1C(=O)NCc1cc(Cl)ccc1-n1cnnn1)c1ccc(F)cc1 [Example 26, (1R)-2-[(5S)-5-{[5-Chloro-2-(1H-tetrazol-1-yl)benzyl]carbamoyl}-4,5-dihydro-1H-pyrazol-1-yl]-1-(4-fluorophenyl)-2-oxoethyl 2-methylpropanoate]",IC50,150 nM
"O=C(NCc1cc(Cl)ccc1-n1cnnn1)[C@@H]1CCNN1C(=O)[C@H](O)C1CCCCC1 [Example 55, (3S)—N-[5-Chloro-2-(1H-tetrazol-1-yl)benzyl]-2-[(2R)-2-cyclohexyl-2-hydroxyacetyl]pyrazolidine-3-carboxamide]",IC50,8.4 nM
"O=C(NCc1cc(Cl)ccc1-n1cnnn1)[C@@H]1CC=NN1C(=O)C(O)c1ccc(F)cc1F (stereo partly drawn) [Example 6, (5S)—N-[5-Chloro-2-(1H-tetrazol-1-yl)benzyl]-1-[(2,4-difluorophenyl)(hydroxy)acetyl]-4,5-dihydro-1H-pyrazole-5-carboxamide]",IC50,35 nM
"CC(C)CC[C@@H](O)C(=O)N1OCC[C@H]1C(=O)NCc1cc(Cl)ccc1-n1cnnn1 [Example 39, (3S)—N-[5-Chloro-2-(1H-tetrazol-1-yl)benzyl]-2-[(2R)-2-hydroxy-5-methylhexanoyl]isoxazolidine-3-carboxamide]",IC50,13 nM
"Cc1cccc(C(O)C(=O)N2OCC[C@H]2C(=O)NCc2cc(Cl)ccc2-n2cnnn2)c1 (stereo partly drawn) [Example 37, (3S)—N-[5-Chloro-2-(1H-tetrazol-1-yl)benzyl]-2-[hydroxy(3-methylphenyl)acetyl]isoxazolidine-3-carboxamide]",IC50,16 nM
"CC(=O)O[C@@H](C(=O)N1N=CC[C@H]1C(=O)NCc1cc(Cl)ccc1-n1cnnn1)c1ccc(F)cc1 [Example 23, [(1R)-2-[(5S)-5-[[5-Chloro-2-(tetrazol-1-yl)phenyl]methylcarbamoyl]-4,5-dihydropyrazol-1-yl]-1-(4-fluorophenyl)-2-oxo-ethyl]acetate]",IC50,193 nM
"CC(C)(C)OC[C@@H](O)C(=O)N1OCC[C@H]1C(=O)NCc1cc(Cl)ccc1-n1cnnn1 [Example 40, (3S)-2-[(2R)-3-tert-Butoxy-2-hydroxypropanoyl]-N-[5-chloro-2-(1H-tetrazol-1-yl)benzyl]isoxazolidine-3-carboxamide]",IC50,44 nM
"O=C(NCc1cc(Cl)ccc1-n1cnnn1)[C@@H]1CCON1C(=O)C(O)c1cc(F)cc(F)c1 (stereo partly drawn) [Example 35, (3S)—N-[5-Chloro-2-(1H-tetrazol-1-yl)benzyl]-2-[(3,5-difluorophenyl)(hydroxy)acetyl]isoxazolidine-3-carboxamide]",IC50,70 nM
"O=C(NCc1cc(Cl)ccc1-n1cnnn1)[C@@H]1CCNN1C(=O)C1(O)CCOc2ccccc21 (stereo partly drawn) [Example 53, (3S)—N-[5-Chloro-2-(1H-tetrazol-1-yl)benzyl]-2-[(4-hydroxy-3,4-dihydro-2H-chromen-4-yl)carbonyl]pyrazolidine-3-carboxamide]",IC50,240 nM
"O=C(NCc1cc(Cl)ccc1-n1cnnn1)[C@@H]1CCON1C(=O)[C@H](O)C1CCCCC1 [Example 42, (3S)—N-[5-Chloro-2-(1H-tetrazol-1-yl)benzyl]-2-[(2R)-2-cyclohexyl-2-hydroxyacetyl]isoxazolidine-3-carboxamide]",IC50,21 nM
"O=C(NCc1cc(Cl)ccc1-n1cnnn1)[C@@H]1CC=NN1C(=O)[C@H](O)C1CCCC1 [Example 5, (5S)—N-[5-Chloro-2-(1H-tetrazol-1-yl)benzyl]-1-[(2R)-2-cyclopentyl-2-hydroxyacetyl]-4,5-dihydro-1H-pyrazole-5-carboxamide]",IC50,24 nM
"O=C(NCc1cc(Cl)ccc1-n1cnnn1)[C@@H]1CCON1C(=O)C(O)c1cccc(F)c1F (stereo partly drawn) [Example 34, (3S)—N-[5-Chloro-2-(1H-tetrazol-1-yl)benzyl]-2-[(2,3-difluorophenyl)(hydroxy)acetyl]isoxazolidine-3-carboxamide]",IC50,160 nM
"O=C(NCc1cc(Cl)ccc1-n1cnnn1)[C@@H]1CCNN1C(=O)C(O)c1ccccc1F (stereo partly drawn) [Example 50, (3S)—N-[5-Chloro-2-(1H-tetrazol-1-yl)benzyl]-2-[(2-fluorophenyl)(hydroxy)acetyl]pyrazolidine-3-carboxamide]",IC50,79 nM
"O=C(NCc1cc(Cl)ccc1-n1cnnn1)[C@@H]1CC=NN1C(=O)[C@H](O)CC1CC1 [Example 19, (5S)—N-[5-Chloro-2-(1H-tetrazol-1-yl)benzyl]-1-[(2R)-3-cyclopropyl-2-hydroxypropanoyl]-4,5-dihydro-1H-pyrazole-5-carboxamide]",IC50,31 nM
"CC(C)CC(=O)O[C@@H](C(=O)N1N=CC[C@H]1C(=O)NCc1cc(Cl)ccc1-n1cnnn1)c1ccc(F)cc1 [Example 24, (1R)-2-[(5S)-5-{[5-Chloro-2-(1H-tetrazol-1-yl)benzyl]carbamoyl}-4,5-dihydro-1H-pyrazol-1-yl]-1-(4-fluorophenyl)-2-oxoethyl 3-methylbutanoate]",IC50,140 nM
"O=C(NCc1cc(Cl)ccc1-n1cnnn1)[C@@H]1CCNN1C(=O)[C@H](O)Cc1ccccc1 [Example 56, (3S)—N-[5-Chloro-2-(1H-tetrazol-1-yl)benzyl]-2-[(2R)-2-hydroxy-3-phenylpropanoyl]pyrazolidine-3-carboxamide]",IC50,79 nM
"O=C(NCc1cc(Cl)ccc1-n1cnnn1)[C@@H]1CCON1C(=O)[C@H](O)Cc1ccccc1 [Example 47, (3S)—N-[5-Chloro-2-(1H-tetrazol-1-yl)benzyl]-2-[(2R)-2-hydroxy-3-phenylpropanoyl]isoxazolidine-3-carboxamide]",IC50,80 nM
"O=C(NCc1cc(Cl)ccc1-n1cnnn1)[C@@H]1CCON1C(=O)C(O)c1ccccc1F (stereo partly drawn) [Example 36, (3S)—N-[5-Chloro-2-(1H-tetrazol-1-yl)benzyl]-2-[(2-fluorophenyl)(hydroxy)acetyl]isoxazolidine-3-carboxamide]",IC50,94 nM
"O=C(NCc1cc(Cl)ccc1-n1cnnn1)[C@@H]1CCON1C(=O)C(O)c1ccc(F)cc1F (stereo partly drawn) [Example 33, (3S)—N-[5-Chloro-2-(1H-tetrazol-1-yl)benzyl]-2-[(2,4-difluorophenyl)(hydroxy)acetyl]isoxazolidine-3-carboxamide]",IC50,100 nM
